Source: patent US20230081426A1, “COMPOUNDS AND METHODS FOR KRAS MODULATION AND INDICATIONS THEREFOR” (Plexxikon Inc., priority 2020, published 2023)

Assays:
[1] = target: T1, G12D-mutant human KRAS (amino acid residues 1-188) (Homo sapiens, UniProt P01116, G12D); assay: KRAS Binding Disruption Assay (AlphaScreen; biotinylated KRpep-2d analogue or RAF1-RBD), G12D; conditions: KRAS G12D; geometric mean; read-out: KRAS GMean IC50 (uM) MUTATION: G12D
T1 construct: G12D or G12C-mutant human KRAS (amino acid residues 1-188) with FLAG tag; made in house; host or cells: E. coli
How it was run: (§1)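 Displacement format with mutant KRAS, biotinylated KRpep-2d analogue or RAF1-RBD (5-20 nM each) at pH 7.5 with 5 mM MgCl2.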

[2] = target: T2, G12C-mutant human KRAS (amino acid residues 1-188) (Homo sapiens, UniProt P01116, G12C); assay: KRAS Binding Disruption Assay (AlphaScreen; biotinylated KRpep-2d analogue or RAF1-RBD), G12C; conditions: geometric mean, read-out: KRAS GMean IC50 (uM) MUTATION: G12C
T2 construct: G12D or G12C-mutant human KRAS (amino acid residues 1-188) with FLAG tag; made in house; host or cells: E. coli
How it was run: as §1

T1 sequence (P01116 1-188 isoform P01116-2 G12D): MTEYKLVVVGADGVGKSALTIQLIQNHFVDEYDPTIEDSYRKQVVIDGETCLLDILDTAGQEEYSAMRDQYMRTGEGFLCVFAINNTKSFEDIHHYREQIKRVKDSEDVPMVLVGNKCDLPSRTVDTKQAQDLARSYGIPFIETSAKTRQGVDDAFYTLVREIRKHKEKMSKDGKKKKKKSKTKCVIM
T2 sequence (P01116 1-188 isoform P01116-2 G12C): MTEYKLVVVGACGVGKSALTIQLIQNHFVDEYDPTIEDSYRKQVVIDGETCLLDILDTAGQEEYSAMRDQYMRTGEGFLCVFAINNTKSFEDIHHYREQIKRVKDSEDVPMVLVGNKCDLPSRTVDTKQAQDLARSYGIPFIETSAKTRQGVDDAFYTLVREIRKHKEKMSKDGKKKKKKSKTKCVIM

In the case of `CN1CCC[C@H]1COc1nc(N2C[C@H]3CC[C@@H](C2)N3)c2cc(F)c(-c3c[nH]c4ccc(C(F)(F)F)cc34)c(F)c2n1` [P-0757, 4-((1R,5S)-3,8-diazabicyclo[3.2.1]octan-3-yl)-6,8-difluoro-2-(((S)-1-methylpyrrolidin-2-yl)methoxy)-7-(5-(trifluoromethyl)-1H-indol-3-yl)quinazoline], the IC50 [1] is reported as 0.0001 to 10 µM and the IC50 [2] is reported as 100 to 1000 µM.
In the case of `Cc1ccc2[nH]cc(-c3c(F)cc4c(N5C[C@H]6CC[C@@H](C5)N6)nc(OC[C@@H]5CCCN5C)nc4c3F)c2c1` [P-0758, 4-((1R,5S)-3,8-diazabicyclo[3.2.1]octan-3-yl)-6,8-difluoro-7-(5-methyl-1H-indol-3-yl)-2-(((S)-1-methylpyrrolidin-2-yl)methoxy)quinazoline], the IC50 [1] is reported as 0.0001 to 10 µM and the IC50 [2] is reported as 100 to 1000 µM.
`CN1CCC[C@H]1COc1nc(N2C[C@H]3CC[C@@H](C2)N3)c2cc(F)c(-c3c[nH]c4cc(F)ccc34)c(F)c2n1` [P-0759, 4-((1R,5S)-3,8-diazabicyclo[3.2.1]octan-3-yl)-6,8-difluoro-7-(6-fluoro-1H-indol-3-yl)-2-(((S)-1-methylpyrrolidin-2-yl)methoxy)quinazoline] gave an IC50 [1] of 0.0001 to 10 µM and an IC50 [2] of 10 to 100 µM.
For `CN1CCC[C@H]1COc1nc(N2C[C@H]3CC[C@@H](C2)N3)c2ccc(-c3cc(N)nc4ccccc34)c(F)c2n1` [P-0760, 4-(4-((1R,5S)-3,8-diazabicyclo[3.2.1]octan-3-yl)-8-fluoro-2-(((S)-1-methylpyrrolidin-2-yl)methoxy)quinazolin-7-yl)quinolin-2-amine], the IC50 [1] was 0.0001 to 10 µM and the IC50 [2] was 10 to 100 µM.
`CN1CCC[C@H]1COc1nc(N2C[C@H]3CC[C@@H](C2)N3)c2ccc(-c3cc(=O)[nH]c4ccccc34)c(F)c2n1` [P-0761, 4-(4-((1R,5S)-3,8-diazabicyclo[3.2.1]octan-3-yl)-8-fluoro-2-(((S)-1-methylpyrrolidin-2-yl)methoxy)quinazolin-7-yl)quinolin-2(1H)-one] gave an IC50 [1] of 0.0001 to 10 µM and an IC50 [2] of 100 to 1000 µM.
Molecule `CN1CCC[C@H]1COc1nc(N2C[C@H]3CC[C@@H](C2)N3)c2ccc(-c3nccc4cccc(C(F)(F)F)c34)c(F)c2n1` [P-0762, 4-((1R,5S)-3,8-diazabicyclo[3.2.1]octan-3-yl)-8-fluoro-2-(((S)-1-methylpyrrolidin-2-yl)methoxy)-7-(8-(trifluoromethyl)isoquinolin-1-yl)quinazoline] has an IC50 [1] of 10 to 100 µM and an IC50 [2] of 10 to 100 µM.
`Fc1ccc2[nH]cc(-c3ccc4c(N5C[C@H]6CC[C@@H](C5)N6)nc(OCC56CCCN5CCC6)nc4c3F)c2c1F` [P-0763, 4-((1R,5S)-3,8-diazabicyclo[3.2.1]octan-3-yl)-7-(4,5-difluoro-1H-indol-3-yl)-8-fluoro-2-((tetrahydro-1H-pyrrolizin-7a(5H)-yl)methoxy)quinazoline] showed an IC50 [1] of 0.0001 to 10 µM and an IC50 [2] of 0.0001 to 10 µM.
`Fc1c(-c2c[nH]c3cccc(F)c23)ccc2c(N3C[C@H]4CC[C@@H](C3)N4)nc(OCC34CCCN3CCC4)nc12` [P-0764, 4-((1R,5S)-3,8-diazabicyclo[3.2.1]octan-3-yl)-8-fluoro-7-(4-fluoro-1H-indol-3-yl)-2-((tetrahydro-1H-pyrrolizin-7a(5H)-yl)methoxy)quinazoline] gave an IC50 [1] of 0.0001 to 10 µM and an IC50 [2] of 0.0001 to 10 µM.
With `Fc1ccc2[nH]cc(-c3c(Cl)cc4c(N5C[C@H]6CC[C@@H](C5)N6)nc(OCC56CCCN5CCC6)nc4c3F)c2c1F` [P-0765, 4-((1R,5S)-3,8-diazabicyclo[3.2.1]octan-3-yl)-6-chloro-7-(4,5-difluoro-1H-indol-3-yl)-8-fluoro-2-((tetrahydro-1H-pyrrolizin-7a(5H)-yl)methoxy)quinazoline] the IC50 [1] was 0.0001 to 10 µM and the IC50 [2] was 0.0001 to 10 µM.
With `O=C1CC(COc2nc(N3C[C@H]4CC[C@@H](C3)N4)c3ccc(-c4cc(O)cc5ccccc45)c(F)c3n2)CN1` (stereo partly drawn) [P-0766, 4-(((4-((1R,5S)-3,8-diazabicyclo[3.2.1]octan-3-yl)-8-fluoro-7-(3-hydroxynaphthalen-1-yl)quinazolin-2-yl)oxy)methyl)pyrrolidin-2-one] the IC50 [1] was 0.0001 to 10 µM and the IC50 [2] was 10 to 100 µM.
`O=C1NCCC1COc1nc(N2C[C@H]3CC[C@@H](C2)N3)c2ccc(-c3cc(O)cc4ccccc34)c(F)c2n1` (stereo partly drawn) [P-0767, 3-(((4-((1R,5S)-3,8-diazabicyclo[3.2.1]octan-3-yl)-8-fluoro-7-(3-hydroxynaphthalen-1-yl)quinazolin-2-yl)oxy)methyl)pyrrolidin-2-one] gave an IC50 [1] of 0.0001 to 10 µM and an IC50 [2] of 10 to 100 µM.
`CC(C)(O)COc1nc(N2C[C@H]3CC[C@@H](C2)N3)c2ccc(-c3cc(O)cc4ccccc34)c(F)c2n1` [P-0768, 4-(4-((1R,5S)-3,8-diazabicyclo[3.2.1]octan-3-yl)-8-fluoro-2-(2-hydroxy-2-methylpropoxy)quinazolin-7-yl)naphthalen-2-ol] was tested, and the IC50 [1] was 0.0001 to 10 µM and the IC50 [2] was 10 to 100 µM.
With `Oc1cc(-c2ccc3c(N4C[C@H]5CC[C@@H](C4)N5)nc(CCNc4ncccn4)nc3c2F)c2ccccc2c1` [P-0769, 4-(4-((1R,5S)-3,8-diazabicyclo[3.2.1]octan-3-yl)-8-fluoro-2-(2-(pyrimidin-2-ylamino)ethyl)quinazolin-7-yl)naphthalen-2-ol] the IC50 [1] was 0.0001 to 10 µM and the IC50 [2] was 10 to 100 µM.
With `CC(=O)NCCc1nc(N2C[C@H]3CC[C@@H](C2)N3)c2ccc(-c3cc(O)cc4ccccc34)c(F)c2n1` [P-0770, N-(2-(4-((1R,5S)-3,8-diazabicyclo[3.2.1]octan-3-yl)-8-fluoro-7-(3-hydroxynaphthalen-1-yl)quinazolin-2-yl)ethyl)acetamide] the IC50 [1] was 0.0001 to 10 µM and the IC50 [2] was 10 to 100 µM.
Work on `CS(=O)(=O)NCCc1nc(N2C[C@H]3CC[C@@H](C2)N3)c2ccc(-c3cc(O)cc4ccccc34)c(F)c2n1` [P-0771, N-(2-(4-((1R,5S)-3,8-diazabicyclo[3.2.1]octan-3-yl)-8-fluoro-7-(3-hydroxynaphthalen-1-yl)quinazolin-2-yl)ethyl)methanesulfonamide] yielded an IC50 [1] of 0.0001 to 10 µM and an IC50 [2] of 10 to 100 µM.
`COc1ccc(CNCCc2nc(N3C[C@H]4CC[C@@H](C3)N4)c3ccc(-c4cc(O)cc5ccccc45)c(F)c3n2)cc1` [P-0772, 4-(4-((1R,5S)-3,8-diazabicyclo[3.2.1]octan-3-yl)-8-fluoro-2-(2-((4-methoxybenzyl)amino)ethyl)quinazolin-7-yl)naphthalen-2-ol] was tested, and the IC50 [1] was 0.0001 to 10 µM and the IC50 [2] was 10 to 100 µM.
`CP(C)(=O)CC(=O)N1[C@@H]2CC[C@H]1CN(c1nc(OCC34CCCN3CCC4)nc3c(F)c(-c4cc(O)cc5ccccc45)ccc13)C2` [P-0773, 2-(dimethylphosphoryl)-1-((1R,5S)-3-(8-fluoro-7-(3-hydroxynaphthalen-1-yl)-2-((tetrahydro-1H-pyrrolizin-7a(5H)-yl)methoxy)quinazolin-4-yl)-3,8-diazabicyclo[3.2.1]octan-8-yl)ethan-1-one] was tested, and the IC50 [1] was 0.0001 to 10 µM and the IC50 [2] was 0.0001 to 10 µM.
Work on `Fc1cc2c(N3C[C@H]4CC[C@@H](C3)N4)nc(OCC34CCCN3CCC4)nc2c(F)c1-c1c[nH]c2ccc(Cl)c(Cl)c12` [P-0774, 4-((1R,5S)-3,8-diazabicyclo[3.2.1]octan-3-yl)-7-(4,5-dichloro-1H-indol-3-yl)-6,8-difluoro-2-((tetrahydro-1H-pyrrolizin-7a(5H)-yl)methoxy)quinazoline] yielded an IC50 [1] of 0.0001 to 10 µM and an IC50 [2] of 0.0001 to 10 µM.
`Oc1cc(-c2ccc3c(N4C[C@H]5CC[C@@H](C4)N5)nc(OCC4CCCCO4)nc3c2F)c2ccccc2c1` (stereo partly drawn) [P-0775, 4-(4-((1R,5S)-3,8-diazabicyclo[3.2.1]octan-3-yl)-8-fluoro-2-((tetrahydro-2H-pyran-2-yl)methoxy)quinazolin-7-yl)naphthalen-2-ol] gave an IC50 [1] of 0.0001 to 10 µM and an IC50 [2] of 10 to 100 µM.
Molecule `Oc1cc(-c2ccc3c(N4C[C@H]5CC[C@@H](C4)N5)nc(OCC4CCCOC4)nc3c2F)c2ccccc2c1` (stereo partly drawn) [P-0776, 4-(4-((1R,5S)-3,8-diazabicyclo[3.2.1]octan-3-yl)-8-fluoro-2-((tetrahydro-2H-pyran-3-yl)methoxy)quinazolin-7-yl)naphthalen-2-ol] has an IC50 [1] of 0.0001 to 10 µM and an IC50 [2] of 10 to 100 µM.
`Cc1cc(COc2nc(N3C[C@H]4CC[C@@H](C3)N4)c3ccc(-c4cc(O)cc5ccccc45)c(F)c3n2)no1` [P-0777, 4-(4-((1R,5S)-3,8-diazabicyclo[3.2.1]octan-3-yl)-8-fluoro-2-((5-methylisoxazol-3-yl)methoxy)quinazolin-7-yl)naphthalen-2-ol] showed an IC50 [1] of 0.0001 to 10 µM and an IC50 [2] of 10 to 100 µM.
For `Oc1cc(-c2ccc3c(N4C[C@H]5CC[C@@H](C4)N5)nc(OCC4CC(F)(F)C4)nc3c2F)c2ccccc2c1` [P-0778, 4-(4-((1R,5S)-3,8-diazabicyclo[3.2.1]octan-3-yl)-2-((3,3-difluorocyclobutyl)methoxy)-8-fluoroquinazolin-7-yl)naphthalen-2-ol], the IC50 [1] was 0.0001 to 10 µM and the IC50 [2] was 10 to 100 µM.
For `Oc1cc(-c2ccc3c(N4C[C@H]5CC[C@@H](C4)N5)nc(OCC4CCCCC4)nc3c2F)c2ccccc2c1` [P-0779, 4-(4-((1R,5S)-3,8-diazabicyclo[3.2.1]octan-3-yl)-2-(cyclohexylmethoxy)-8-fluoroquinazolin-7-yl)naphthalen-2-ol], the IC50 [1] was 0.0001 to 10 µM and the IC50 [2] was 10 to 100 µM.
Molecule `CN1CCC[C@H]1COc1nc(N2C[C@H]3CC[C@@H](C2)N3)c2cc(F)c(-c3c[nH]c4ncccc34)c(F)c2n1` [P-0780, 4-((1R,5S)-3,8-diazabicyclo[3.2.1]octan-3-yl)-6,8-difluoro-2-(((S)-1-methylpyrrolidin-2-yl)methoxy)-7-(1H-pyrrolo[2,3-b]pyridin-3-yl)quinazoline] has an IC50 [1] of 10 to 100 µM and an IC50 [2] of 100 to 1000 µM.
For `CN1CCC[C@H]1COc1nc(N2C[C@H]3CC[C@@H](C2)N3)c2ccc(-c3nccc4ccc(F)cc34)c(F)c2n1` [P-0781, 4-((1R,5S)-3,8-diazabicyclo[3.2.1]octan-3-yl)-8-fluoro-7-(7-fluoroisoquinolin-1-yl)-2-(((S)-1-methylpyrrolidin-2-yl)methoxy)quinazoline], the IC50 [1] was 10 to 100 µM and the IC50 [2] was 100 to 1000 µM.
